In patent US12096770B2, “Method for preparing an insect repellent agent” (CENTRE NATIONAL DE LA RECHERCHE SCIENTIFIQUE, priority 2019, dated 2024):
≈ marks a conversion by molar mass, not a printed value. Where “and” joins values, the source holds several entries; their conditions need not be identical. Identical values can stand only once.

Assays:
Aedes albopictus = experiment: Behavioural (blood-feeding) repellency test on tiger mosquitoes with feeders covered by pig intestinal skin; assay type: in vivo; details: for % Repellency: 1 hour, relative to EtOH negative control, mean ± standard deviation of 16 replicates; for effect of added compound on repellent activity of PMD: added to commercial cis/trans PMD 75/25 at 200 mg/m^2 in EtOH
Procedure: Testing was performed as to the activity of the compositions obtained by the method according to the invention on the behaviour of the tiger mosquito, Aedes albopictus.
The behavioural tests were carried out at the Montpellier Vectopôle, which is a research centre that collaborates with the WHO for the evaluation of insecticides in public health.
The tests were carried out on mosquitoes aged 5 to 9 days old after their evolution from pupae to adult.
In preparation for the experiment, the mosquitoes were […] on the day prior thereto, in order to promote their appetite for the test to occur the subsequent day.
Each cup contains a damp cotton. The female mosquitoes were removed from the cage making use of a tube that enables aspiration thereof. They were then introduced into each experiment cup (10 mosquitoes per cup).
The tests were carried out on plexiglass racks serving as supports for glass bells known as feeders. The latter are connected to each other by plastic pipes wherein water circulates at 37° C.
Pig intestinal skin was used to mimic human skin in the experiment. The pieces of intestinal skin are positioned and stretched over the feeders.
The repellent is diluted in ethyl alcohol (aka ethanol or EtOH) and is deposited on the skin using a micropipette and then spread over the entire surface. […] If the composition tested is a mixture of at least two compounds, one of which is PMD, the said composition is diluted in ethanol until 0.02036 mg/μL of PMD is obtained.
The feeders are turned over, then 300 μL of sheep blood are placed in each feeder. The cups are inserted under each feeder.
Polystyrene plates are inserted between the lines of repellent so as to avoid possible interactions of odours. The duration of the experiment is one hour. The cups are then placed in a freezer at −20° C. for a period of 40 minutes. After freezing, the contents of one cup are placed between two sheets of paper, with the entirety thereof then being crushed with a plexiglass plate. The counting of the blood-fed (engorged) mosquitoes is done based on the number of red dots on the sheet of paper. The results are expressed as a percentage of repellency (100% −X% of blood-feeding). The percentage of blood-feeding is defined in relation to the EtOH negative control. DEET and commercial cis/trans PMD 75/25 at 200 mg/m^2 were used as positive controls.
The results obtained were statistically analysed using R software (R Development Core Team. R: A language and environment for statistical computing. R Foundation for Statistical Computing, Vienna, Austria. ISBN 3-900051-07-0, 2013) and represent the mean of 16 replicates. The percentage repellency values are presented as a mean±standard deviation. The R software also makes it possible to compare two percentage repellency values by means of calculating the quantity p. This quantity p is a probability.

[1] = test system: olfactory receptors of Aedes albopictus; experiment: Orientation tests in ElectroAntennogGraphy coupled with Gas Chromatography
Procedure: Orientation tests in ElectroAntennogGraphy coupled with Gas Chromatography were carried out.

acetylcholinesterase = details: cited from earlier work

| Compound | % Repellency (Aedes albopictus; 200 mg/m^2 (of PMD) in EtOH) | effect of added compound on repellent activity of PMD (Aedes albopictus) | also measured |
| --- | --- | --- | --- |
| CC1CCC(C(C)(C)O)C(O)C1 (racemic) [Commercial cis/trans PMD 75/25, p-menthane-3,8-diol] | 79 ± 4% and 59 ± 14% and 68 ± 2% and 55 ± 10% and 60 ± 5% and 65 ± 8% and 69 ± 13% and 63 ± 9% and 59 ± 9% and 56 ± 13% | – | % Repellency (Aedes albopictus; 200 mg/m^2 (of PMD) in EtOH, listed as Commercial cis/trans PMD 75/25 derived from RS citronellal (racemic mixture)): 34 ± 1%; ED 50 expressed as concentration (Aedes albopictus; concentration in EtOH tantamount to 200 mg/m^2): 20.36 mg/mL (≈ 118 mM); ED 50 (median effective dose) (Aedes albopictus; dose deposited on skin): 200 mg/m^2 |
| CC(C)=CCCC(C)CC=O (stereo not drawn) [citronellal, 3,7-dimethyloct-6-en-1-al] | – | does not boost PMD activity | – |
| CC1CCC(C(C)(C)O)C(O)C1 (mixture of isomers) [Commercial cis/trans PMD 75/25 derived from R citronellal] [p-menthane-3,8-diol] | 24 ± 2% | – | – |
| CC(C)=CCCC(C)CC1OC2CC(C)CCC2C(C)(C)O1 (stereo not drawn) [acetals] | – | enhance the repellent activity of PMD | – |
| CC(C)=CCCC(C)CCO (stereo not drawn) [citronellol, 3,7-dimethyloct-6-en-1-ol] | – | – | recognition in ElectroAntennogGraphy [1]: recognised at very low doses |
| CC1CCC(C(C)(C)O)C(O)C1 (mixture of isomers) [Commercial cis/trans PMD 60/40, p-menthane-3,8-diol] | 68 ± 15% | – | – |
| CC1CCC(C(C)(C)O)C(O)C1 (stereo not drawn) [PMD, (2-hydroxypropan-2-yl)-5-methylcyclohexan-1-ol] | – | – | recognition in ElectroAntennogGraphy [1]: recognised at very low doses |
| CC1CCC(C(C)(C)O)C(O)C1 (stereo not drawn) [Commercial trans PMD, p-menthane-3,8-diol] | 57 ± 6% | – | – |
| CC1CCC(C(C)(C)O)C(O)C1 (mixture of isomers) [Commercial cis/trans PMD 75/25 derived from S citronellal] [p-menthane-3,8-diol] | 41 ± 3% | – | – |
| CCN(CC)C(=O)c1cccc(C)c1 [DEET, N,N diethyl-meta-toluamide] | – | – | % Repellency (Aedes albopictus; 110 mg/m^2 in EtOH): 63 ± 5% and 49 ± 4% and 68 ± 10% and 43 ± 1% and 41 ± 6% and 63 ± 8% and 73 ± 7% and 28 ± 8%; acetylcholinesterase inhibition (acetylcholinesterase): inhibits |
| C=C(C)C1CCC(C)CC1O (stereo not drawn) [isopulegol, 5-methyl-2-prop-1-en-2-ylcyclohexan-1-ol] | – | may enhance the repellent activity of PMD | – |
| CC1CCC(C(C)(C)O)C(O)C1 (stereo not drawn) [Commercial cis PMD, p-menthane-3,8-diol] | 64 ± 15% | – | – |
| C=C1CC/C=C(\C)CC[C@@H]2[C@@H]1CC2(C)C [caryophyllene, (1R,4E,9S)-4,11,11-trimethyl-8-methylidenebicyclo[7.2.0]undec-4-ene] | – | enhances the repellent activity of PMD | recognition in ElectroAntennogGraphy [1]: recognised at very low doses |
